Laboratory results from patent US10450347B2, “Immunomodulators” (BRISTOL-MYERS SQUIBB COMPANY, priority 2015, dated 2019).
Starred links: 1 amine or outer side, 2 acyl side, 3 side chain; linkers in the order of their positions; H or OH if unused. Positions of bridges follow the written chain, without caps; N, C: chain ends. Non-standard residues stand in square brackets, D forms with d. Residues, ends and D or L forms follow the SMILES beside them. Tyrψ(CN4)Ala = C[C@@H](C(=O)[*:2])n1nnnc1[C@H](Cc1ccc(O)cc1)N[*:1]; X2 = O=C(Cn1nnnc1C1(N[*:1])CCCCC1)[*:2]; Bta = N[C@@H](Cc1csc2ccccc12)C(=O)O; Hyp = O=C(O)[C@@H]1C[C@@H](O)CN1; NMeF = CN[C@@H](Cc1ccccc1)C(=O)O; NMeNle = CCCC[C@H](NC)C(=O)O; Sar = CNCC(=O)O

Assays:
PD-1-Ig/PD-L1-His = biological target: T1, PD-1-Ig/PD-L1-His (Homo sapiens, UniProt Q9NZQ7); test: PD-1/PD-L1 Homogenous Time-Resolved Fluorescence (HTRF) binding assay; details: inhibition of PD-1-Ig binding to PD-L1-TVMV-His
T1 construct: [hPD-L1(19-239)-tobacco vein mottling virus protease cleavage site (TVMV)-His]; made in house; host or cells: HEK293T cells
Excerpt: The ability of the macrocyclic peptides of the present disclosure to bind to PD-L1 was investigated using a PD-1/PD-L1 Homogenous Time-Resolved Fluorescence (HTRF) binding assay.
Homogenous Time-Resolved Fluorescence (HTRF) Assays of Binding of Soluble PD-1 to Soluble PD-L1. Soluble PD-1 and soluble PD-L1 refers to proteins with carboxyl-end truncations that remove the transmembrane-spanning regions and are fused to heterologous sequences, specifically the Fc portion of the human immunoglobuling G sequence (Ig) or the hexahistidine epitope tag (SEQ ID NO: 3) (His). All binding studies were performed in an HTRF assay buffer consisting of dPBS supplemented with 0.1% (w/v) bovine serum albumin and 0.05% (v/v) Tween-20. For the PD-1-Ig/PD-L1-His binding assay, inhibitors were pre-incubated with PD-L1-His (10 nM final) for 15 m in 4 μl of assay buffer, followed by addition of PD-1-Ig (20 nM final) in 1 μl of assay buffer and further incubation for 15 m. PD-L1 fusion proteins from either human, cynomologous macaques, mouse, or other species were used. HTRF detection was achieved using europium crypate-labeled anti-Ig monoclonal antibody (1 nM final) and allophycocyanin (APC) labeled anti-His monoclonal antibody (20 nM final). Antibodies were diluted in HTRF detection buffer and 5 μl was dispensed on top of binding reaction. The reaction was allowed to equilibrate for 30 minutes and signal (665 nm/620 nm ratio) was obtained using an EnVision fluorometer. Additional binding assays were established between PD-1-Ig/PD-L2-His (20 and 5 nM, respectively), CD80-His/PD-L1-Ig (100 and 10 nM, respectively) and CD80-His/CTLA4-Ig (10 and 5 nM, respectively). Binding/competition studies between biotinylated Compound No. 71 and human PD-L1-His were performed as follows. Macrocyclic peptide inhibitors were pre-incubated with PD-L1-His (10 nM final) for 60 minutes in 4 μl of assay buffer followed by addition of biotinylated Compound No. 71 (0.5 nM final) in 1 μl of assay buffer. Binding was allowed to equilibrate for 30 minutes followed by addition of europium crypated labeled Streptavidin (2.5 pM final) and APC-labeled anti-His (20 nM final) in 5 μl of HTRF buffer. The reaction was allowed to equilibrate for 30 m and signal (665 nm/620 nm ratio) was obtained using an EnVision fluorometer.
Recombinant Proteins. Carboxyl-truncated human PD-1 (amino acids 25-167) with a C-terminal human Ig epitope tag [hPD-1 (25-167)-3S-IG] and human PD-L1 (amino acids 18-239) with a C-terminal His epitope tag [hPD-L1(19-239)-tobacco vein mottling virus protease cleavage site (TVMV)-His] were expressed in HEK293T cells and purified sequentially by recombinant Protein A affinity chromatography and size exclusion chromatography. Human PD-L2-His (Sino Biologicals), CD80-His (Sino Biologicals), CTLA4-Ig (RnD Systems) were all obtained through commercial sources.

[1] = oral administration, extensive first-pass metabolism in the liver; cited from earlier work

T1 sequence (Q9NZQ7 with tags, fused parts or gaps): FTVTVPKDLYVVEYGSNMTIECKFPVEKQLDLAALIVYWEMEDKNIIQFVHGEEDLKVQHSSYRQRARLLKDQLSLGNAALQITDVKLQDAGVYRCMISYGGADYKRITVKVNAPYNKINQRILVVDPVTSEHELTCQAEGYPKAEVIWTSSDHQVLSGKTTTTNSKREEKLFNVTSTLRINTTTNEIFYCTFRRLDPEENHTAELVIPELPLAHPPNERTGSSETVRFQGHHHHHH

IC50 (PD-1-Ig/PD-L1-His; range classes) [nM]	SMILES	other results
100 to 10000	CCCC[C@H]1C(=O)N[C@@H](C)C(=O)N[C@H](C(=O)NCC(N)=O)CSCC(=O)N[C@@H](Cc2ccc(O)cc2)C(=O)N(C)[C@@H](C)C(=O)N[C@@H](CC(=O)O)C(=O)N2CCC[C@H]2C(=O)N[C@@H](Cc2cnc[nH]2)C(=O)N[C@@H](CCC(N)=O)C(=O)N2C[C@H](O)C[C@H]2C(=O)N[C@@H](Cc2c[nH]c3ccccc23)C(=O)N[C@@H](CO)C(=O)N[C@@H](Cc2cccc3ccccc23)c2nnnn2[C@@H](CCCC)C(=O)N1C [Example 1103]	
10 to 99	CCCC[C@H]1C(=O)N[C@@H](CCC(=O)O)C(=O)N[C@H](C(=O)NCC(N)=O)CSCC(=O)N[C@@H](Cc2ccc(O)cc2)C(=O)N(C)[C@@H](C)C(=O)N[C@@H](CC(=O)O)C(=O)N2CCC[C@H]2C(=O)N[C@@H](Cc2cnc[nH]2)C(=O)N[C@@H](CCC(N)=O)C(=O)N2C[C@H](O)C[C@H]2C(=O)N[C@@H](Cc2c[nH]c3ccccc23)C(=O)N[C@@H](CO)C(=O)N[C@@H](Cc2cccc3ccccc23)c2nnnn2[C@@H](CCCC)C(=O)N1C [Example 1104]	
100 to 10000	CCCC[C@H]1C(=O)N(C)[C@@H](CCCC)C(=O)N[C@@H](CCC(=O)O)C(=O)N[C@H](C(=O)NCC(N)=O)CSCC(=O)N[C@@H](Cc2ccc(O)cc2)c2nnnn2[C@@H](C)C(=O)N[C@@H](CC(=O)O)C(=O)N2CCC[C@H]2C(=O)N[C@@H](Cc2c[nH]cn2)C(=O)N[C@@H](CCC(N)=O)C(=O)N2C[C@H](O)C[C@H]2C(=O)N[C@@H](Cc2c[nH]c3ccccc23)C(=O)N[C@@H](CO)C(=O)N[C@@H](Cc2csc3ccccc23)C(=O)N1C [Example 1106] ({CH2CO}-[Tyrψ(CN4)Ala]DPHQ[Hyp]WS[Bta][NMeNle][NMeNle]ECG-NH2; thioether N-13)	
100 to 10000	CCCC[C@H]1C(=O)N[C@@H](CN)C(=O)N[C@H](C(=O)NCC(N)=O)CSCC(=O)N[C@@H](Cc2ccc(O)cc2)C(=O)N(C)[C@@H](C)C(=O)N[C@@H](CC(=O)O)C(=O)N2CCC[C@H]2C(=O)N[C@@H](Cc2cnc[nH]2)C(=O)N[C@@H](CCC(N)=O)C(=O)N2C[C@H](O)C[C@H]2C(=O)N[C@@H](Cc2c[nH]c3ccccc23)C(=O)N[C@@H](CO)C(=O)N[C@@H](Cc2cccc3ccccc23)c2nnnn2[C@@H](CCCC)C(=O)N1C [Example 1107]	
100 to 10000	CCCC[C@H]1C(=O)N[C@@H](CN)C(=O)N[C@H](C(=O)NCC(N)=O)CSCC(=O)N[C@@H](Cc2ccc(O)cc2)C(=O)N(C)[C@@H](C)C(=O)N[C@@H](CC(=O)O)C(=O)N2CCC[C@H]2C(=O)N[C@@H](Cc2c[nH]cn2)C(=O)N[C@@H](CCC(=O)O)C(=O)N2C[C@H](O)C[C@H]2C(=O)N[C@@H](Cc2c[nH]c3ccccc23)C(=O)N[C@@H](CO)C(=O)N[C@@H](Cc2cccc3ccccc23)c2nnnn2[C@@H](CCCC)C(=O)N1C [Example 1108]	
100 to 10000	CCCC[C@H]1C(=O)N[C@@H](C)C(=O)N[C@H](C(=O)NCC(N)=O)CSCC(=O)N[C@@H](Cc2ccc(O)cc2)C(=O)N[C@H](C)C(=O)N[C@@H](CC(=O)O)C(=O)N2CCC[C@H]2C(=O)N[C@@H](Cc2cnc[nH]2)C(=O)N[C@@H](CCC(N)=O)C(=O)N2C[C@H](O)C[C@H]2C(=O)N[C@@H](Cc2c[nH]c3ccccc23)C(=O)N[C@@H](CO)C(=O)N[C@@H](Cc2cccc3ccccc23)c2nnnn2[C@@H](CCCC)C(=O)N1C [Example 1113]	

The remaining lines, values behind:

SMILES	IC50 (PD-1-Ig/PD-L1-His; range classes) [nM]	other results
CCCC[C@H]1C(=O)N(C)[C@@H](CCCC)C(=O)N[C@@H](C)C(=O)N[C@H](C(=O)NCC(N)=O)CSCC(=O)N[C@@H](Cc2ccc(O)cc2)c2nnnn2[C@@H](C)C(=O)N[C@@H](CC(=O)O)C(=O)N2CCC[C@H]2C(=O)N[C@@H](Cc2c[nH]cn2)C(=O)N[C@@H](CCC(N)=O)C(=O)N2C[C@H](O)C[C@H]2C(=O)N[C@@H](Cc2c[nH]c3ccccc23)C(=O)N[C@@H](CO)C(=O)N[C@@H](Cc2csc3ccccc23)C(=O)N1C [Example 1105] ({CH2CO}-[Tyrψ(CN4)Ala]DPHQ[Hyp]WS[Bta][NMeNle][NMeNle]ACG-NH2; thioether N-13)	100 to 10000	
CCCC[C@H]1C(=O)N[C@@H](CN)C(=O)N[C@H](C(=O)NCC(N)=O)CSCC(=O)N[C@@H](Cc2ccc(O)cc2)C(=O)N(C)[C@@H](C)C(=O)N[C@@H](CC(=O)O)C(=O)N2CCC[C@H]2C(=O)N[C@@H](CN)C(=O)N[C@@H](CCC(=O)O)C(=O)N2C[C@H](O)C[C@H]2C(=O)N[C@@H](Cc2c[nH]c3ccccc23)C(=O)N[C@@H](CO)C(=O)N[C@@H](Cc2cccc3ccccc23)c2nnnn2[C@@H](CCCC)C(=O)N1C [Example 1109]	10 to 99	
CCCC[C@H]1C(=O)N(C)[C@@H](CCCC)C(=O)N[C@@H](C)C(=O)N[C@H](C(=O)NCC(=O)O)CSCC(=O)N[C@@H](Cc2ccc(O)cc2)c2nnnn2[C@@H](C)C(=O)N[C@@H](CC(=O)O)C(=O)N2CCC[C@H]2C(=O)N[C@@H](Cc2c[nH]cn2)C(=O)N[C@@H](CCC(N)=O)C(=O)N2C[C@H](O)C[C@H]2C(=O)N[C@@H](Cc2c[nH]c3ccccc23)C(=O)N[C@@H](CO)C(=O)N[C@@H](Cc2csc3ccccc23)C(=O)N1C [Example 1110] ({CH2CO}-[Tyrψ(CN4)Ala]DPHQ[Hyp]WS[Bta][NMeNle][NMeNle]ACG-OH; thioether N-13)	100 to 10000	
CCCC[C@H]1C(=O)N[C@@H](CN)C(=O)N[C@H](C(=O)NCC(N)=O)CSCC(=O)N[C@@H](Cc2ccc(O)cc2)C(=O)N[C@H](C)C(=O)N[C@@H](CC(=O)O)C(=O)N2CCC[C@H]2C(=O)N[C@@H](Cc2cnc[nH]2)C(=O)N[C@@H](CCC(N)=O)C(=O)N2C[C@H](O)C[C@H]2C(=O)N[C@@H](Cc2c[nH]c3ccccc23)C(=O)N[C@@H](CO)C(=O)N[C@@H](Cc2cccc3ccccc23)c2nnnn2[C@@H](CCCC)C(=O)N1C [Example 1111]		IC50 (PD-1-Ig/PD-L1-His; numeric values): 2160 nM
CCCC[C@H]1C(=O)N(C)CC(=O)N[C@@H](CC(=O)O)C(=O)N[C@@H](C(C)C)C(=O)N(C)[C@@H](Cc2ccccc2)C(=O)NC2(CCCCC2)c2nnnn2CC(=O)N[C@@H](Cc2c[nH]c3ccccc23)C(=O)N[C@@H](Cc2ccc(O)cc2)C(=O)N[C@@H](CC(C)C)C(=O)N[C@H](C(=O)NCC(N)=O)CSCC(=O)N[C@@H](Cc2ccccc2)C(=O)N(C)[C@@H](Cc2ccccc2)C(=O)N1C [Example 3003] ({CH2CO}-F[NMeF][NMeNle][Sar]DV[NMeF][X2]WYLCG-NH2; thioether N-12)		IC50 (PD-1-Ig/PD-L1-His; numeric values): 590 nM
CCCC1O[C@@H]2C[C@H]3[C@@H]4CCC5=CC(=O)C=C[C@]5(C)[C@H]4[C@@H](O)C[C@]3(C)[C@]2(C(=O)CO)O1 (stereo partly drawn) [budesonide]		bioavailability [1]: about 10%
